Results: patent US8841296B2, “Substituted 1, 4-dioxa-8-azaspiro[4,5]decanes useful as fungicides and a process for the preparation thereof” (Council of Scientific and Industrial Research, Anusandhan …, priority 2009, dated 2014)

Tests used:
grape powdery mildew = test: Field experiment against grape powdery mildew; format: in vivo, grapevine; settings: for PDI on Bunches 11 DAIIS / % Disease Control (11 DAIIS): 11 days after 2nd spray; for % Disease Control (11 DAIIS) / % Disease Control (15 DAIIS): over untreated check; for PDI on Bunches 15 DAIIS / % Disease Control (15 DAIIS): 15 days after 2nd spray
Procedure: A field experiment was conducted on pruned grapevine, in a randomized block design with ten treatments (Table No 1) and three replications. Two sprays were given at an interval of 10 days. The plot size was eight vines per treatment/replication. The spraying was done by Knapsack sprayer using 850 L spray volume/hectare. […] Based on the observations percent incidence was worked out.

grape downy mildew = test: Field experiment against grape downy mildew; format: in vivo, grapevine; settings: for Grape Downy mildew incidence 7 DAIIS / % Control (7 DAIIS): 7 days after 2nd spray; for % Control (7 DAIIS) / % Control (10 DAIIS): over untreated check; for Grape Downy mildew incidence 10 DAIIS / % Control (10 DAIIS): 10 days after 2nd spray
Procedure: A field experiment was conducted on pruned grapevine, in a randomized block design with ten treatments (Table No. 3) and three replications. Two sprays were given at an interval of 6 days starting at 28 days after pruning. The plot size was ten vines per treatment/replication. The spraying was done by Knapsack sprayer using 1000 L spray volume/hectare. […] Based on the observations, percent disease incidence was worked out. The data was subjected to statistical analysis.

rose powdery mildew = test: Field experiment against rose powdery mildew; format: in vivo; settings: 20% EC @ 720 g a.i./ha, 4 days after spray
From the text: Two sprays were given at an interval of 4 days. The spraying was done by Foot operated sprayer using 1200 L spray volume/hectare. […] Based on the observations percent incidence was worked out. The data was subjected to statistical analysis.

Drechslera oryzae = test: Growth inhibition plate assay, D. oryzae; format: cell-based; settings: Bipolaris oryzae, read-out: Plate assay inhibition, P3 D. oryzae, 25 ppm; ND = Not Detectable
Colletotrichum capsici = test: Growth inhibition plate assay, C. capsici; format: cell-based; settings: Colletotrichum truncatum, ND = Not Detectable, read-out: Plate assay inhibition, P2 C. capsici
Rhizoctonia solani = test: Growth inhibition plate assay, R. solani; format: cell-based; settings: ND = Not Detectable, read-out: Plate assay inhibition, P1 R. solani
Pyrricularia oryzae = test: microbe, parasite or virus in culture; format: cell-based; settings: Pyricularia oryzae, read-out: Plate assay inhibition, P5 P. oryzae, 25 ppm; ND = Not Detectable
Pythium aphanidermatum = test: Growth inhibition plate assay, P. aphanidermatum; format: cell-based; settings: ND = Not Detectable, read-out: Plate assay inhibition, P6 P. aphanidermatum
Fusarium oxysporum = test: Growth inhibition plate assay, F. oxysporum; format: cell-based; settings: Fusarium oxysporum, ND = Not Detectable, read-out: Plate assay inhibition, P4 F. oxysporum
[1] = system: plant pathogenic fungi (all the test pathogens); format: cell-based
Magnaporthe grisea = format: cell-based
[2] = 20% EC @ 800 g a.i./ha, listed as Cpd 2

Structure (SMILES): CO/C=C(/C(=O)OC)c1ccccc1Oc1cc(Oc2ccccc2C#N)ncn1 [Azoxystrobin, reference compound]
- PDI on Bunches 11 DAIIS (grape powdery mildew; 25 SC @ 212 g a.i./ha): 8.68%
- % Disease Control (11 DAIIS) (grape powdery mildew; 25 SC @ 212 g a.i./ha): 70.97%
- PDI on Bunches 15 DAIIS (grape powdery mildew; 25 SC @ 212 g a.i./ha): 5.92%
- % Disease Control (15 DAIIS) (grape powdery mildew; 25 SC @ 212 g a.i./ha): 77.34%
- Grape Downy mildew incidence 7 DAIIS (grape downy mildew; 23 SC @ 230 g a.i./ha): 3.32%
- % Control (7 DAIIS) (grape downy mildew; 23 SC @ 230 g a.i./ha): 80.29%
- Grape Downy mildew incidence 10 DAIIS (grape downy mildew; 23 SC @ 230 g a.i./ha): 2.7%
- % Control (10 DAIIS) (grape downy mildew; 23 SC @ 230 g a.i./ha): 88.14%

Structure (SMILES): Clc1cc(Br)ccc1OCC1COC2(CCN(CCc3ccccc3)CC2)O1 (stereo not drawn) [Compound 2, 2-(4-bromo-2-chlorophenoxy)methyl-8-phenethyl-1,4-dioxa-8-azaspiro[4,5]decane]
- PDI on Bunches 11 DAIIS (grape powdery mildew; 20% EC @ 340 g a.i./ha): 12.96%
- % Disease Control (11 DAIIS) (grape powdery mildew; 20% EC @ 340 g a.i./ha): 56.67%
- PDI on Bunches 15 DAIIS (grape powdery mildew; 20% EC @ 340 g a.i./ha): 10.23%
- % Disease Control (15 DAIIS) (grape powdery mildew; 20% EC @ 340 g a.i./ha): 60.84%
- PDI on Bunches 11 DAIIS (grape powdery mildew; 20% EC @ 510 g a.i./ha): 13.6%
- % Disease Control (11 DAIIS) (grape powdery mildew; 20% EC @ 510 g a.i./ha): 54.53%
- PDI on Bunches 15 DAIIS (grape powdery mildew; 20% EC @ 510 g a.i./ha): 9.6%
- % Disease Control (15 DAIIS) (grape powdery mildew; 20% EC @ 510 g a.i./ha): 63.26%
- PDI on Bunches 11 DAIIS (grape powdery mildew; 20% EC @ 680 g a.i./ha): 12.48%
- % Disease Control (11 DAIIS) (grape powdery mildew; 20% EC @ 680 g a.i./ha): 58.27%
- PDI on Bunches 15 DAIIS (grape powdery mildew; 20% EC @ 680 g a.i./ha): 8.9%
- % Disease Control (15 DAIIS) (grape powdery mildew; 20% EC @ 680 g a.i./ha): 65.93%
- Rose PM % incidence 4 DAS (rose powdery mildew): 36.83%
- Rose PM % Control (rose powdery mildew; over untreated check): 28.52%
- Grape Downy mildew incidence 7 DAIIS (grape downy mildew; 20% EC @ 400 g a.i./ha): comparable with standard check fungicides
- Grape Downy mildew incidence 7 DAIIS (grape downy mildew; 20% EC @ 400 g a.i./ha, listed as Cpd 2): 4.46%
- % Control (7 DAIIS) (grape downy mildew; 20% EC @ 400 g a.i./ha): 73.53%
- Grape Downy mildew incidence 10 DAIIS (grape downy mildew; 20% EC @ 400 g a.i./ha): 7.58%
- % Control (10 DAIIS) (grape downy mildew; 20% EC @ 400 g a.i./ha): 66.72%
- Grape Downy mildew incidence 7 DAIIS (grape downy mildew; 20% EC @ 800 g a.i./ha): comparable with standard check fungicides
- Grape Downy mildew incidence 7 DAIIS (grape downy mildew; [2]): 2.77%
- % Control (7 DAIIS) (grape downy mildew; 20% EC @ 800 g a.i./ha): 83.56%
- Grape Downy mildew incidence 10 DAIIS (grape downy mildew; 20% EC @ 800 g a.i./ha): at par with standard check fungicides
- Grape Downy mildew incidence 10 DAIIS (grape downy mildew; [2]): 5.27%
- % Control (10 DAIIS) (grape downy mildew; 20% EC @ 800 g a.i./ha): 76.86%
- inhibition at 25 ppm (Drechslera oryzae): 90 to 100%
- inhibition at 25 ppm (Colletotrichum capsici): 90 to 100%
- inhibition at 25 ppm (Rhizoctonia solani): 90 to 100%
- inhibition at 25 ppm (Pyrricularia oryzae): 90 to 100%
- inhibition at 25 ppm (Pythium aphanidermatum): 90 to 100%
- inhibition at 25 ppm (Fusarium oxysporum): 90 to 100%
- inhibition against all the test pathogens [1]: 90-100%
- fungicidal activity against plant pathogenic fungi ([1]; result in words): active against all pathogens

Structure (SMILES): c1ccc(CCN2CCC3(CC2)OCC(CN2CCOCC2)O3)cc1 (stereo not drawn) [Compound 3, 2-(morpholin-4-yl)methyl-8-phenethyl-1,4-dioxa-8-azaspiro[4,5]decane]
- inhibition at 25 ppm (Drechslera oryzae): 60 to 70%
- inhibition at 25 ppm (Rhizoctonia solani): 70 to 80%
- inhibition at 25 ppm (Pyrricularia oryzae): 40 to 50%
- inhibition at 25 ppm (Fusarium oxysporum): 70 to 80%

Structure (SMILES): Clc1ncc(COCC2COC3(CCN(CCc4ccccc4)CC3)O2)s1 (stereo not drawn) [Compound 4, 2-(2-chloro-5-thiazolyl)methoxymethyl-8-phenethyl-1,4-dioxa-8-azaspiro[4,5]decane]
- inhibition at 25 ppm (Colletotrichum capsici): 20 to 30%
- inhibition at 25 ppm (Rhizoctonia solani): 20 to 30%
- inhibition at 25 ppm (Pyrricularia oryzae): 30 to 40%
- inhibition at 25 ppm (Fusarium oxysporum): 30 to 40%
- inhibition against all the test pathogens [1]: 20-30%

Structure (SMILES): c1ccc(CCN2CCC3(CC2)OCC(COCc2ccccc2)O3)cc1 (stereo not drawn) [Compound 5, 2-benzyloxymethyl-8-phenethyl-1,4-dioxa-8-azaspiro[4,5]decane]
- inhibition at 25 ppm (Drechslera oryzae): 60 to 70%
- inhibition at 25 ppm (Rhizoctonia solani): 40 to 50%
- inhibition against M. grisea (Magnaporthe grisea): 60-70%
- inhibition at 25 ppm (Fusarium oxysporum): 40 to 50%
